Measurements: PMC10774165, “Correlating sugar transporter expression and activities to identify transporters for an orphan sugar substrate” (Applied Microbiology and Biotechnology, 2024)

Columns and labels:
Assay type in all cases: cell-based
NCU00809 [1] = target: T1, NCU00809 (Neurospora crassa, UniProt Q7SEC5); assay: growth of transporter-expressing yeast on the sugar; details: S. cerevisiae EBY.VW4000
T1 construct: full-length cDNA in p426H7, expressed in S. cerevisiae EBY.VW4000 with K. lactis LAC4
T1 sequence (Q7SEC5 1-547): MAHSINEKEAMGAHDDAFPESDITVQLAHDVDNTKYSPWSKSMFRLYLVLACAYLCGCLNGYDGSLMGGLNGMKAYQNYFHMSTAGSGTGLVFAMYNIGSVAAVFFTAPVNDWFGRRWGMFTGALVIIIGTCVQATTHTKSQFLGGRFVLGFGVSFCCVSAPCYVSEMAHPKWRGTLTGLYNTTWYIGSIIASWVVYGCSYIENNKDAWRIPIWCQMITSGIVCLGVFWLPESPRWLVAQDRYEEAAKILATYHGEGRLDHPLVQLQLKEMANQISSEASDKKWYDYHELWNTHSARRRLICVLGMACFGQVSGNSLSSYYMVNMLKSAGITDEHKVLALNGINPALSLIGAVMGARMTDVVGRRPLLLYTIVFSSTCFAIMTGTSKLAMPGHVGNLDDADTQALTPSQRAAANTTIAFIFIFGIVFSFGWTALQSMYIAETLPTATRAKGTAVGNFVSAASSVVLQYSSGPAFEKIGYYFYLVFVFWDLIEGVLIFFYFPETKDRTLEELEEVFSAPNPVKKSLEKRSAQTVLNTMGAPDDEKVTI

CDT-1 = target: T2, CDT-1 (Neurospora crassa, UniProt Q7SCU1); assay: growth of transporter-expressing yeast on the sugar as sole carbon source; details: 0.2% or 2% lactose, 30 °C, 3 days, coexpressed K. lactis Lac4; uptake also reduced in N. crassa deletion mutant
T2 construct: full-length cDNA in p426H7, expressed in S. cerevisiae EBY.VW4000 (with K. lactis LAC4 for lactose)
T2 sequence (Q7SCU1 entry or part of it): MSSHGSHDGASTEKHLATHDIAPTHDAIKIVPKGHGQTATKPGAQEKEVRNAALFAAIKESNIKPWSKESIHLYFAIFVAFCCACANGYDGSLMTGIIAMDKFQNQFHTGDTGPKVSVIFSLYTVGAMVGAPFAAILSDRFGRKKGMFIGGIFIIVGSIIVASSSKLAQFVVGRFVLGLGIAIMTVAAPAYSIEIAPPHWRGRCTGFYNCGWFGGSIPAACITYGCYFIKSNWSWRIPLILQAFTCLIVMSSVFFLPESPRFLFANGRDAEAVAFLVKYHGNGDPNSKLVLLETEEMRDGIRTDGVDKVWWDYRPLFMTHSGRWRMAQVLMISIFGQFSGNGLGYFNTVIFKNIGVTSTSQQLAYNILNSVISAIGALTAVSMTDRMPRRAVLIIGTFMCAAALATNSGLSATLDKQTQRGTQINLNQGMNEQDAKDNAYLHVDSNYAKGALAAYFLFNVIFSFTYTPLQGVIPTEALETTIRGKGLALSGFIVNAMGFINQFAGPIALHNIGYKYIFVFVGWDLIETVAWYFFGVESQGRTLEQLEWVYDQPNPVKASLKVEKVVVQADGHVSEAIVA

CDT-2 = target: T3, CDT-2 (Neurospora crassa, UniProt Q7SD12); assay: as above; details: 0.2% or 2% lactose, 30 °C, 3 days, coexpressed K. lactis Lac4; uptake also reduced in N. crassa deletion mutant
T3 construct: full-length cDNA in p426H7, expressed in S. cerevisiae EBY.VW4000 with K. lactis LAC4
T3 sequence (Q7SD12 entry or part of it): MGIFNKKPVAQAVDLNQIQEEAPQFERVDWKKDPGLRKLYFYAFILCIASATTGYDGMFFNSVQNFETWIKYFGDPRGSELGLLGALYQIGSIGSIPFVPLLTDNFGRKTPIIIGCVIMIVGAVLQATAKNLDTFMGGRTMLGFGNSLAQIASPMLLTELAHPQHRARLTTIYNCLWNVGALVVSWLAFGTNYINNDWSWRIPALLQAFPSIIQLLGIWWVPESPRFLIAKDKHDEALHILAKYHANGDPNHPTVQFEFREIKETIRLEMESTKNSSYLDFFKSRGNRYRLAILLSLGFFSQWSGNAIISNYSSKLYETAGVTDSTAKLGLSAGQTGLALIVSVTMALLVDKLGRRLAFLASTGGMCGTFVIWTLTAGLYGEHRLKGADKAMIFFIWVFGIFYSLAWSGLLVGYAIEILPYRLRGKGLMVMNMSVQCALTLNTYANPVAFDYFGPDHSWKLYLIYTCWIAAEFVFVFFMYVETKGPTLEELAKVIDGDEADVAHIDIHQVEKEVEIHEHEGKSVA

NCU00809 [2] = target: T1, NCU00809; assay: as above; details: 0.2% or 2% lactose, 30 °C, 3 days, coexpressed K. lactis Lac4; uptake also reduced in N. crassa deletion mutant
NCU08052 = target: T4, NCU08052 (Neurospora crassa, UniProt Q7SGN1); assay: glycerol uptake by N. crassa wild type versus deletion mutant; details: after induction in arabinose, 20 min
T4 construct: native protein in N. crassa mycelium, wild type versus deletion mutant
T4 sequence (Q7SGN1 entry or part of it): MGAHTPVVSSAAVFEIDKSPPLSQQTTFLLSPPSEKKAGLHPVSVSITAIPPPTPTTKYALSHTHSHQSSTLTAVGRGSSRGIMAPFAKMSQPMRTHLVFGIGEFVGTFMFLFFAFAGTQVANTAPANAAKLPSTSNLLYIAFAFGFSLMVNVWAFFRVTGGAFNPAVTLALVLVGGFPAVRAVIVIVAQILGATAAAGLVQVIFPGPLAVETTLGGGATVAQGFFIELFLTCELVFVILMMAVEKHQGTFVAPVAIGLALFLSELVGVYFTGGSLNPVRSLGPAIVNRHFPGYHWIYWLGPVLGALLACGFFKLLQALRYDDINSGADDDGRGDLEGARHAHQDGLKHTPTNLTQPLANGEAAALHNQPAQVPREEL

For `OC[C@H]1OC(O)[C@H](O)[C@@H](O)[C@H]1O` (stereo partly drawn) [D-galactose], the “growth of transporter-expressing yeast on the sugar” value (NCU00809 [1]) was “NCU00809 was found to display transport activity for D-galactose”.

With `OC[C@H]1O[C@@H](O[C@H]2[C@H](O)[C@@H](O)C(O)O[C@@H]2CO)[C@H](O)[C@@H](O)[C@H]1O` (stereo partly drawn) [lactose, β-D-galactopyranosyl-(1 → 4)-D-glucose] the “growth of transporter-expressing yeast on the sugar as sole carbon source” value (from here on “growth … as sole carbon source”) (CDT-1) was “demonstrating that they are plasma membrane permeases that can transport lactose”, the “growth … as sole carbon source” value (CDT-2) was “demonstrating that they are plasma membrane permeases that can transport lactose” and the “growth … as sole carbon source” value (NCU00809 [2]) was “demonstrating that they are plasma membrane permeases that can transport lactose”.

With `OCC(O)CO` [glycerol] the “glycerol uptake by N. crassa wild type versus deletion mutant” value (NCU08052) was “a significantly reduced uptake rate in the respective deletion mutant”.
